Source: patent publication US20210369681A1, “Identification of PPM1D mutations as a novel biomarker for NAMPTi sensitivity” (YALE UNIVERSITY, priority 2018, published 2021)

What follows are molecules tested on PPM1D (γH2AX foci in parental and PPM1Dtrnc. astrocytes) (assay: γH2AX foci formation after ionizing radiation). Settings: 10 Gy IR; 50 nM inhibitor 24 hours prior to IR.
Assay type: cell-based, human
Experimental: Astrocyte cell lines were seeded and incubated overnight, before radiation. Plates were then collected at indicated time points, fixed, permeabilized/blocked, and stained with primary and secondary antibodies for fluorescent imaging. […] Cells were subsequently washed in 1×PBS, followed by a joint permeabilization and blocking step in incubation buffer (5% BSA and 0.5% TritonX100, in PBS) for 1 hour. Primary antibody raised against γH2AX […] (Millipore 05-636) was added at a dilution of 1:1000 in incubation buffer, and incubated overnight at 4° C. Plates were washed, followed by a 1 hour RT incubation with alexafluor-conjugated secondary antibodies (ThermoFisher A21425 or A11029, 1:10,000) and a nuclear dye, […] Hoechst 33342 (Sigma), in secondary buffer (0.5% TritonX100, in PBS). Plates were again washed, and imaged in PBS using the Cytation3 imaging system (BioTek). Images were stitched using Gen5 v2.09 software (BioTek), and both foci and cell numbers were counted using CellProfiler image processing software.

SMILES | Differences in γH2AX foci between parental and PPM1Dtrnc. astrocytes after IR
Cc1ncc(Cl)cc1NCc1ccc(C(=O)N[C@@H](CC2CCCC2)C(=O)NC2CC2)s1 [GSK2830371] | abolished

Each molecule was assayed on parental and PPM1Dtrnc. immortalized human astrocytes (assay: not given). Settings: not given.
Assay type: cell-based
Experimental: (§1) In vitro cellular viability assessments of immortalized human astrocytes, MCF7, and U2OS cell lines were made using a previously described, high-content, microscopy platform developed by our group. In brief, cells were plated in a 96-well plate at a density of 2000 cells/well, and incubated overnight. Drug treatment or vehicle (0.5% DMSO) control was administered, and cells were incubated for 72-96 hours as indicated. Plates were then washed with PBS and fixed with ice-cold 70% ethanol for 2 hours at 4° C. […] Cells were imaged using a Cytation3 imager (BioTek), and images were stitched and analyzed as described above. Viability assessments were made comparing drug treated to vehicle treated conditions. SU-DIPG and HSJD-DIPG-007 spheroid viability was assessed using CytoTox-Glo (Promega), according to the manufacturer's protocols. Spheroids were treated with FK866 for 120 hours before analysis using this method. IC50 calculations were made using GraphPad Prism, by fitting data to an [inhibitor] vs response−variable slope four parameter nonlinear regression (as depicted in the representative figures). siRNA Transfection and Viability Analysis Individual NAPRT targeting siRNAs were ordered from Dharmacon Inc. (Horizon Discovery), with target sequences listed in Table 1. The panel of siRNAs used for synthetic lethal viability screening was hand-selected and ordered from Dharmacon Inc. and were provided in ON-TARGET plus mixtures, each containing up to four unique siRNAs per gene. 2×10^5 astrocytes were reverse-transfected with different siRNAs (200 nM final concentration), using Lipofectamine RNAiMAX (Invitrogen), according to manufacturer's protocols. For individual siRNAs, cells were incubated for 72 hours, pelleted, and lyzed for immunoblotting. For the siRNA screen, cells were incubated for 24 hours and split to different condition plates, where they were incubated for an additional 24 hours. Cells were then treated with the described doses of FK866, and viability was assessed after 72 hours of drug treatment, using the image-based pipeline described above. Viability measurements were made for each siRNA, and normalized to FK866-untreated conditions.
Given the role of PPM1D in DDR pathways, we performed a small molecule synthetic lethal screen with a panel of inhibitors against key DNA repair and metabolic proteins, using methodology described previously by our group.

SMILES | IC50 ratio (Parental/PPM1Dtrnc.)
O=P1(N(CCCl)CCCl)NCCCO1 (stereo not shown) [Cyclophosphamide] | 0.90

Same assay, conditions: ratio of IC50 in parental astrocytes to IC50 in PPM1Dtrnc. astrocytes; viability

SMILES | IC50 ratio (Parental/PPM1Dtrnc.)
Cc1cc([C@@H](C)Nc2ccccc2C(=O)O)c2nc(N3CCOCC3)cc(=O)n2c1 [AZD6482] | 1.00
NC(=O)Nc1cc(-c2cccc(F)c2)sc1C(=O)N[C@H]1CCCNC1 [AZD7762] | 0.77
C[C@@]1(CO)[C@H](O)CC[C@@]2(C)[C@H]1CC[C@H]1C[C@@H]3C[C@@]12CC[C@]3(O)CO [Aphidicolin] | 1.75
Cn1c(=O)n(-c2ccc(C(C)(C)C#N)cc2)c2c3cc(-c4cnc5ccccc5c4)ccc3ncc21 [BEZ-235] | 1.01
Cn1ncnc1[C@H]1c2n[nH]c(=O)c3cc(F)cc(c23)N[C@@H]1c1ccc(F)cc1 [BMN673] | 0.99
Cn1c(CCCC(=O)O)nc2cc(N(CCCl)CCCl)ccc21 [Bendamustine] | 1.07
C[C@@H](CN1CC(=O)NC(=O)C1)N1CC(=O)NC(=O)C1 [Dexrazoxane] | 1.17
Cn1ncc2c(N3CCOCC3)nc(-c3cccc(O)c3)nc21 [ETP 45658] | 1.51
O=C(O)c1ccc(CN2CCC(CN[C@@H]3C[C@H]3c3ccccc3)CC2)cc1 [G5K2879552] | 1.00
CCc1c2c(nc3ccc(OC(=O)N4CCC(N5CCCCC5)CC4)cc13)-c1cc3c(c(=O)n1C2)COC(=O)[C@]3(O)CC [Irinotecan] | 1.01
CCN1CCN(CC(=O)Nc2ccc(-c3cccc4c(=O)cc(N5CCOCC5)oc34)c3sc4ccccc4c23)CC1 [KU 0060648] | 0.69
O=c1cc(-c2cccc3c2Sc2ccccc2S3)oc(N2CCOCC2)c1 [KU-55933] | 1.18
CC(N[C@H]1C[C@@H]1c1ccccc1)c1ccc2c(c1)OCCO2 (stereo partly shown) [LSD1-C76] | 0.98
O=NN(CCCl)C(=O)NC1CCCCC1 [Lomustine] | 1.10
C=CCn1c(=O)c2cnc(Nc3ccc(N4CCN(C)CC4)cc3)nc2n1-c1cccc(C(C)(C)O)n1 [MK-1775] | 0.63
CN(C)CCCNC(=O)c1ccc(-c2cc(O)c3ncccc3c2)cc1 [MLM324] | 1.02
NS(=O)(=O)OC[C@@H]1C[C@@H](n2ccc3c(N[C@H]4CCc5ccccc54)ncnc32)C[C@@H]1O [MLN4924] | 0.92
CO[C@@]12[C@H](COC(N)=O)C3=C(C(=O)C(C)=C(N)C3=O)N1C[C@@H]1N[C@@H]12 [MMC] | 1.08
COS(C)(=O)=O [MMS] | 1.28
O=c1cc(N2CCOCC2)oc2c(-c3cccc4c3sc3ccccc34)cccc12 [NU-7441] | 1.26
O=C(c1cc(Cc2n[nH]c(=O)c3ccccc23)ccc1F)N1CCN(C(=O)C2CC2)CC1 [Olaparib] | 1.32
Cc1ccc([N+](=O)[O-])cc1S(=O)(=O)N(C)/N=C/c1cnc2ccc(Br)cn12 [PIK 75] | 0.97
OCc1ccc(-c2ccc(-c3ccc(CO)s3)o2)s1 [RITA] | 1.27
C/C(=N\NC(=O)c1cccc(S(=O)(=O)N2CCOCC2)c1)c1cc(Cl)ccc1O [SP2509] | 1.36
CCN1CCN(C(=O)Cc2ccc(Nc3ncc(F)c(Nc4ccc(C(=O)Nc5ccccc5Cl)cc4)n3)cc2)CC1 [TC-S 7010] | 0.78
CNc1cc(-c2cccc(Cl)c2Cl)nc(N)n1 [TH287] | 1.52
Cn1nnc2c(C(N)=O)ncn2c1=O [TMZ] | 1.37
CC[C@@]1(O)C(=O)OCc2c1cc1n(c2=O)Cc2cc3c(CN(C)C)c(O)ccc3nc2-1 [Topotecan] | 0.99
CNCc1ccc(-c2cc(-c3nc(-c4ccc(S(=O)(=O)C(C)C)cc4)cnc3N)on2)cc1 [VE822] | 0.93

Each molecule was assayed on NAD and NADP levels in WT and PPM1Dtrnc. astrocytes (assay: NAD / NADP quantification in astrocytes). Settings: PPM1Dtrnc. astrocytes; exogenous NR (50 μM, 24 hrs).
Assay type: cell-based, human
Experimental: The NAD metabolome was quantitatively analyzed using LC-MS/MS, using two separations on Hypercarb and 13C metabolite standards. Subsequent NAD level analyses were performed using a NAD/NADH Quantification kit (Sigma), as per the manufacturer's specifications. Me/hME-DIP, Bisulfite Conversion, and Global 5-hmC Detection Genomic DNA was purified using the Wizard Genomic DNA purification kit (Promega), and subsequently immunoprecipitated or bisulfite-converted. […] Immunoprecipitated DNA was extracted with phenol/chloroform and analyzed using quantitative PCR (qPCR), as described below. Bisulfite conversion was performed via EpiMark Bisulfite Conversion kit (NEB). Modified DNA was then amplified using EpiMark Hot Start Taq DNA polymerase (NEB), with primers listed in Table 1, and purified with a PCR purification kit (Qiagen). Methylation was then assessed through Sanger-sequencing of the NAPRT promoter. Global 5-hydroxymethylcytosine levels were assessed via the Global 5-hmC quantification kit (Active Motif), according to manufacturer's protocols. Quantitative PCR (qPCR) mRNA transcripts were purified from cells using a RNAeasy kit (Qiagen) and subsequently reverse transcribed using a High Capacity cDNA reverse transcription kit (Applied Biosystems). PPM1D and NAPRT gene expression levels were assessed through qPCR with TaqMan fluorescent probes (all from Applied Biosystems): PPM1D (4331182), NAPRT (4351372), and Actin (4333762F), according to manufacturer's protocol. Expression level fold change was calculated via ΔΔCt comparison, using Actin as a reference gene. The NAPRT promoter region was quantitated via qPCR using Fast Start Universal SYBR Green Master with ROX (Roche), and primers listed in Table 1. All qPCR reactions were run on a StepOnePlus Real Time PCR system (Applied Biosystems).

SMILES | Basal NAD levels
NC(=O)c1ccc[n+]([C@@H]2O[C@H](CO)[C@@H](O)[C@H]2O)c1 [NR, nicotinamide riboside] | sufficiently increased

The molecules below were run on PPM1Dtrnc. astrocytes (assay: not given). Settings: not given.
Experimental: PPM1D^trnc. astrocytes were treated with 50 µg/mL cycloheximide or 1 μM MG132 (both Sigma) for the indicated amount of time. Cells were then washed, pelleted, and lyzed for subsequent immunoblotting approaches, as described above. Quantification of immunoblot intensity was calculated using ImageJ software, and consisted of multiple (n=3) blots. Irradiation of cells was performed using an X-RAD KV irradiator (Precision X-ray), and treatment consisted of an unfractionated, 10 Gy dose. PPM1D inhibitor treatment with GSK2830371 (Selleckchem), consisted of 50 nM treatment, 24 hours prior to IR. FK866 (Selleckchem), GPP78 (Tocris Bioscience), STF118804 (Tocris Bioscience), STF31 (Tocris Bioscience), 5-azacytidine (Selleckchem), and Decitabine (Selleckchem) were dissolved in DMSO and used for treatment as indicated.
as §1

SMILES | Effect on the cytotoxicity of FK866
NC(=O)c1ccc[n+]([C@@H]2O[C@H](CO)[C@@H](O)[C@H]2O)c1 [NR, nicotinamide riboside] | completely mitigated

Same assay, conditions: 72 hr treatment; structurally distinct NAMPT inhibitors

SMILES | NAMPT inhibitor sensitivity of PPM1D mutant astrocytes
O=C(CCCCCCCn1cc(-c2cccnc2)nn1)Nc1ccccc1-c1ccccc1 [GPP78] | confirmed
CC(C)(C)c1ccc(S(=O)(=O)NCc2ccc(C(=O)Nc3cccnc3)cc2)cc1 [STF31] | confirmed
Cc1ccc(S(=O)(=O)Cc2nc(-c3ccc(C(=O)NCc4cccnc4)cc3)oc2C)cc1 [STF118804] | confirmed

Same assay, conditions: PPM1Dtrnc. cells; 72 hr concurrent treatment with FK866

SMILES | Effect on the cytotoxicity of FK866
NC(=O)c1cccnc1 [NAM, nicotinamide] | strongly antagonized
